According to ChEMBL document CHEMBL1687928, “Discovery, optimization, and pharmacological characterization of novel heteroaroylphenylureas antagonists of C-C chemokine ligand 2 function” (J Med Chem, 2011):
Values after ≈ are worked out from the molar mass of the structure shown. Active and inactive are the calls of the source. The calls are words filed in the database; no cut-off is given here.

Legend:
THP-1 = assay: Cytotoxicity against human THP1 cells; format: cell-based
[1] = Aqueous solubility of the compound at pH 1.2; format: physicochemical
[2] = Aqueous solubility of the compound at pH 7.4; format: physicochemical
[3] = biological target: C-C chemokine receptor type 2 (Homo sapiens) (UniProt P41597); format: cell-based; conditions: HEK293
Chain of C-C chemokine receptor type 2 (Homo sapiens) (P41597 whole entry, looked up): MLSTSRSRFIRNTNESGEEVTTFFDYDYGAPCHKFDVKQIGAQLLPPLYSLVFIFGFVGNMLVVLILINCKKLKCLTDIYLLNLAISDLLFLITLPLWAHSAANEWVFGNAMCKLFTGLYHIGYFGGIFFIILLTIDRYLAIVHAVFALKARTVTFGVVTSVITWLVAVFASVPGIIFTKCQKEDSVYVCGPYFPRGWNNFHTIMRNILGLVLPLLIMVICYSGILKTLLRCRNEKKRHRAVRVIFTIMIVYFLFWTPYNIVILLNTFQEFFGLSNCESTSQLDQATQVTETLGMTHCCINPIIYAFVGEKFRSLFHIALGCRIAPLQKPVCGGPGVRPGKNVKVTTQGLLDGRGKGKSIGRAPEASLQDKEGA

[4] = biological target: T1, C-X-C chemokine receptor type 1 (Homo sapiens) (UniProt P25024); format: cell-based; conditions: neutrophils
T1 sequence (whole entry): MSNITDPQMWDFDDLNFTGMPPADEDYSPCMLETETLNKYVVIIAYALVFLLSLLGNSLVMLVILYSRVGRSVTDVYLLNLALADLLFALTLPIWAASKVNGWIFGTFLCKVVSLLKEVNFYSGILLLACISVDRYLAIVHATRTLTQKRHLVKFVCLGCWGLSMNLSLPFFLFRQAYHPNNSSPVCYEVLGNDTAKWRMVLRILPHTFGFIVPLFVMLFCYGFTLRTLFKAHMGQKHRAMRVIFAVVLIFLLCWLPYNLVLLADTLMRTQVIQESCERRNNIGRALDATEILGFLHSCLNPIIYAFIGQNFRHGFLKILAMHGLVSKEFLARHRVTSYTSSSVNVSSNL

[5] = biological target: C-C chemokine receptor type 2 (Homo sapiens) (UniProt P41597); format: cell-based; conditions: THP-1
[6] = biological target: T2, C5a anaphylatoxin chemotactic receptor 1 (Homo sapiens) (UniProt P21730); format: cell-based; conditions: CHO
T2 sequence (whole entry): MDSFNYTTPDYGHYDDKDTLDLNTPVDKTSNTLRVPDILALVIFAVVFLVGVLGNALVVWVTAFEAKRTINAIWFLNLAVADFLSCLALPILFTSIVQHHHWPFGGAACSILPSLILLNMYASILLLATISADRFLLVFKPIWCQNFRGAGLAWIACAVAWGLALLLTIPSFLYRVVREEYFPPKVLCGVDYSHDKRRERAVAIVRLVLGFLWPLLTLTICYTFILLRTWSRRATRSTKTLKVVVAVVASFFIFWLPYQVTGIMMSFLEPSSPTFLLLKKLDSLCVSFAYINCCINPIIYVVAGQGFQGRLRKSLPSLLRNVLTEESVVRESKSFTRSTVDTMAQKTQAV

[7] = biological target: T3, C-X-C chemokine receptor type 2 (Homo sapiens) (UniProt P25025); format: cell-based; conditions: neutrophils
T3 sequence (whole entry): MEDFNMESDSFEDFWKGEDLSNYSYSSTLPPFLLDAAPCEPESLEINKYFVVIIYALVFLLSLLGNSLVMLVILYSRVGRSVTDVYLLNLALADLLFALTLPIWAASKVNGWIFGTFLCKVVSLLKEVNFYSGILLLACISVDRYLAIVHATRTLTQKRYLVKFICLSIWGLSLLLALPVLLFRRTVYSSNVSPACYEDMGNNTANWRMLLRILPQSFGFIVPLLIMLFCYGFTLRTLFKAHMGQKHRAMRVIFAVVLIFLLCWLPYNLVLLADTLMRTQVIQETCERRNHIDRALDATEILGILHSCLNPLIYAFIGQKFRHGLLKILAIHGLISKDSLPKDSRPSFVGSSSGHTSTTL

solubility [1]: 3.9 µg/mL (≈ 9.87 µM)
solubility [2]: 5 µg/mL (≈ 12.6 µM)
Activity [3]: inactive
Activity [4]: inactive
Activity [5]: inactive
Activity [7]: inactive
SMILES: Cc1nn(C)c2ncc(C(=O)NC(=O)Nc3ccc(F)c(C(F)(F)F)c3)cc12
CC50 (THP-1): > 50 µM
Activity [6]: inactive
